According to patent US10196369B2, “Spirocyclic EBI2 modulators” (Sanford Burnham Prebys Medical Discovery Institute, priority 2013, dated 2019):

Biological target: EBI2 (Homo sapiens, UniProt P32249)
Test: Cell-based luminescent assay of EBI2 modulation (7a,25-OHC stimulated)
Conditions: 7a,25-OHC final assay concentration 80 nM, 60 minute incubation
Outline: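 Cells expressing EBI2 were plated overnight, then treated 60 min at 37 °C with compound (final 4-5 uM) plus 7a,25-OHC (80 nM final). Detection reagent was added for 60 min at 25 °C in the dark, with luminescence read-out. Values were normalized between neutral and stimulator controls and corrected for plate patterns.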

Sequence of EBI2 (P32249 whole entry): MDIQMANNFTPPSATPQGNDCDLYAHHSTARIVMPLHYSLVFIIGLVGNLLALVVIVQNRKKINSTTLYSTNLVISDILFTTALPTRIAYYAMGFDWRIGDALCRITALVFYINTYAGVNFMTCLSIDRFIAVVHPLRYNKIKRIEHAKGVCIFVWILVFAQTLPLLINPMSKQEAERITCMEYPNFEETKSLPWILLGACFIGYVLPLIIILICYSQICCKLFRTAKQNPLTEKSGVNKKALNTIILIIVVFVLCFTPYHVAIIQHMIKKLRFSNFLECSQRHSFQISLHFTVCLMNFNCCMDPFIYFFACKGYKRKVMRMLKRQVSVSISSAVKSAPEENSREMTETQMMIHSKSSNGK

| IC50 [nM] | Compound |
| --- | --- |
| 100 to 500 | O=C(/C=C/c1ccc(Br)cc1)N1CC2(CCN(C(=O)c3ccc(-c4nnn[nH]4)cc3)CC2)C1 [Compound C23, (2E)-3-(4-bromophenyl)-1-{7-[(4-(1H-1,2,3,4-tetraazol-5-yl)phenyl)carbonyl]-2,7-diazaspiro[3.5]non-2-yl}prop-2-en-1-one] |
| 100 to 500 | O=C(/C=C/c1ccc(Br)cc1)N1CC2(CCN(Cc3ccc(F)cc3)CC2)C1 [Compound C25, (2E)-3-(4-bromophenyl)-1-{7-[(4-fluorophenyl)methyl]-2,7-diazaspiro[3.5]non-2-yl}prop-2-en-1-one] |
| 100 to 500 | O=C(/C=C/c1ccc(Br)cc1)N1CC2(CCN(Cc3ccc(Cl)cc3)CC2)C1 [Compound C26, (2E)-3-(4-bromophenyl)-1-{7-[(4-chlorophenyl)methyl]-2,7-diazaspiro[3.5]non-2-yl}prop-2-en-1-one] |
| 100 to 500 | O=C(c1ccc(B(O)O)cc1)N1CCC2(CC1)CN(C(=O)c1cc3cc(Cl)ccc3[nH]1)C2 [Compound C37, 4-(2-(5-chloro-1H-indole-2-carbonyl)-2,7-diazaspiro[3.5]nonane-7-carbonyl)phenylboronic acid] |
| 500 to 5000 | O=C(C#Cc1ccc(Cl)cc1)N1CC2(CCN(Cc3ccc(C(F)(F)F)cc3)CC2)C1 [Compound C83, 3-(4-chlorophenyl)-1-(7-{[4-(trifluoromethyl)phenyl]methyl}-2,7-diazaspiro[3.5]non-2-yl)prop-2-yn-1-one] |
| < 100 | Nc1ccc(C(=O)N2CCC3(CC2)CN(C(=O)/C=C/c2ccc(Br)cc2)C3)cc1 [Compound C51, (2E)-1-{7-[(4-aminophenyl)carbonyl]-2,7-diazaspiro[3.5]non-2-yl}-3-(4-bromophenyl)prop-2-en-1-one] |
| 100 to 500 | O=C(C#Cc1ccc(F)cc1)N1CCC2(CC1)CN(C(=O)c1ccc(F)cc1)C2 [Compound C86, 3-(4-fluorophenyl)-1-{2-[(4-fluorophenyl)carbonyl]-2,7-diazaspiro[3.5]non-7-yl}prop-2-yn-1-one] |
| 100 to 500 | O=C(C#Cc1ccc(Br)cc1)N1CC2(CCN(C(=O)c3ccc(C(F)(F)F)cc3)CC2)C1 [Compound C65, 3-(4-bromophenyl)-1-(7-{[4-(trifluoromethyl)phenyl]carbonyl}-2,7-diazaspiro[3.5]non-2-yl)prop-2-yn-1-one] |
| 100 to 500 | O=C(c1ccc(F)cc1)N1CCC2(CC1)CN(C(=O)c1cc3cc(Cl)ccc3[nH]1)C2 [Compound C38, 5-chloroindol-2-yl 7-[(4-fluorophenyl)carbonyl]-2,7-diazaspiro[3.5]non-2-yl ketone] |
| 500 to 5000 | O=C(c1ccc(Cl)cc1)N1CCC2(CC1)CN(C(=O)c1cc3ccc(Br)cc3[nH]1)C2 [Compound C59, 6-bromoindol-2-yl 7-[(4-chlorophenyl)carbonyl]-2,7-diazaspiro[3.5]non-2-yl ketone] |
| 500 to 5000 | O=C(c1cc2cc(Br)ccc2[nH]1)N1CC2(CCN(Cc3ccc(C(F)(F)F)cc3)CC2)C1 [Compound C50, 5-bromoindol-2-yl 7-{[4-(trifluoromethyl)phenyl]methyl}-2,7-diazaspiro[3.5]non-2-yl ketone] |
